{
  "source": "patent US20240209302A1",
  "about": "“SYSTEMS, METHODS, AND DEVICES FOR EX VIVO ANALYSIS OF RESECTED TISSUE SAMPLES” (The United States of America,as represented by the …, priority 2020, published 2024)",
  "format_in_all_cases": "cell-based, human",
  "key": {"[1]": {"system": "SDH-B deficient GIST metastases to the peritoneum", "experiment": "Decitabine treatment of GIST tissue in ex vivo perfusion system (H&E, IHC, live imaging)", "settings": "0-10 μM in perfusate; tissues harvested after 4 days", "from_the_text": "The system of FIG. 7A is also well-suited as a translational tool and/or as a tool for enrollment into clinical trials, especially where pre-clinical models are otherwise non-existent. For example, SDH-B deficient GIST is a rare subtype driven by epigenetic silencing of the gene, unresponsive to conventional agents (imatinib) and with no available cell lines or mouse models. Tissue from a patient with SDH-B deficient GIST was utilized in the system of FIG. 7A to investigate decitabine, a potential treatment option being evaluated for this population. Using early demethylation markers as a read-out, changes associated with decitabine treatment at physiologic and supraphysiologic doses were not detected. […] Sample platforms of tissue from the patient with GIST metastases to the peritoneum were cultured in perfusate supplemented with 0-10 μM decitabine. […] Stack projections of live images of control sample at day 0 and day 3 as well as a sample treated with 5 μM decitabine with fluorophore-conjugated antibodies against CD45 and CD117 also show no changes in the decitabine-treated tissue.\nIn any of the above discussed examples, tissue from system 700 was subject to similar histopathologic evaluations. […] Viability on H&E was defined as preservation of normal tissue architecture, intact nuclei, and normal population of immune cells (qualitative and quantitative). […]"}, "[2]": {"system": "resected cholangiocarcinoma tumor and liver capsule", "experiment": "Tivozanib treatment of cholangiocarcinoma tissue in ex vivo perfusion system (H&E, Ki67)", "method": "In another example, the system of FIG. 7A was used to identify a new target in patients with cholangiocarcinoma. The target is a kinase, SLK, that activates AKT signaling leading to aggressive tumor biology and poor patient outcomes. Although no SLK-specific inhibitor exists, the kinome profiles of available kinase inhibitors was evaluated, and tivozanib was identified. Using tissue from a patient with cholangiocarcinoma in the system of FIG. 7A, tivozanib was evaluated. […] Resected cholangiocarcinoma tumor as well as liver capsule mounted on sample platforms treated with 0-1 mg/ml tivozanib were prepared for IHC, stained with H&E and Ki67 antibody. Cells in control and drug-treated platforms were evaluated for viability, degeneration and necrosis.\nIn any of the above discussed examples, tissue from system 700 was subject to similar histopathologic evaluations. For example, the tissues were preserved in the 10% neutral buffered formalin, then through the tissue processor and embedded in paraffin and cut at 5-micron sections for hematoxylin and eosin (H&E) slides. Slides were prepared for H&E staining and immunohistochemistry, respectively to detect CD3 (T cells), CD68 (macrophages), Ki-67 and MIBI (mitotic activity). CD3 and CD68 were predilute antibodies as purchased, while Ki-67 and (MIB-1) were run at 1:200 dilution. All stains were done on an automated immunostainer (Ventana Benchmark Ultra). Viability on H&E was defined as preservation of normal tissue architecture, intact nuclei, and normal population of immune cells (qualitative and quantitative). Each sample was compared against day 0 control samples. Ki67 or stains were performed to assess proliferative activity of the tumor cells. Samples stained with Ki67 or MIB1 on day 4 were compared to day 0 samples to confirm no change in proliferative activity."}, "[3]": {"system": "liver capsule tissue from a colorectal cancer patient with liver metastases (colorectal adenocarcinoma)", "experiment": "Check-point inhibitor evaluation in ex vivo perfusion system, colorectal cancer tissue (timeseries imaging)", "settings": "5 μg/ml for 4 hr", "method": "(§1) The system of FIG. 7A is well-suited to evaluate immunotherapeutic agents. Given that check-point inhibitors have made their way into the clinic for seemingly most solid tumors, such inhibitors were evaluated in the system of FIG. 7A using a tumor from a patient with gastric adenocarcinoma and a tumor from a patient with colorectal adenocarcinoma. Neither of these histologies have significant response rates to check-point inhibitors outside of select genomic subpopulations, which was not applicable to either patient in this example. FIGS. 12A-12D illustrates results of this example.\n(§2) In the top panel, sample platforms with sidewall peritoneum from a gastric cancer patient were incubated with immune checkpoint inhibitor pembrolizumab for 2 days followed by Alexa488CD44/Alexa594CD45 antibodies. Maximum projections of 2-photon images illustrate the intimate contact between CD45-positive cells and the cancer cells. The bottom panel provides a timeseries montage of images taken from liver capsule tissue mounted on sample platforms from a colorectal cancer patient with liver metastases incubated with 5 μg/ml of pembrolizumab for 4 hr. […]\n(§3) Image acquisition was performed on an inverted Leica SP8 setup using multiphoton excitation at 870 nm together with a 25×/0.95 W VISIR lens. […] Images were analyzed using ImageJ software. […]"}, "[4]": {"system": "sidewall peritoneum from a gastric cancer patient (gastric adenocarcinoma)", "experiment": "Check-point inhibitor evaluation in ex vivo perfusion system, gastric cancer tissue (2-photon imaging)", "settings": "incubated for 2 days; Alexa488CD44/Alexa594CD45 antibodies", "method": "as §1, §2, §3"}},
  "data": [
    {"compound": "Nc1ncn([C@H]2C[C@H](O)[C@@H](CO)O2)c(=O)n1", "note": "[decitabine]", "values": [
      {"measurement": "methylation status of GIST (SDHB, 5-HMC, 5-MC IHC)", "setting": "[1]", "value": "no effect"},
      {"measurement": "proliferation activity of GIST (Ki67)", "setting": "[1]", "value": "no effect"}
    ]},
    {"compound": "COc1cc2nccc(Oc3ccc(NC(=O)Nc4cc(C)on4)c(Cl)c3)c2cc1OC", "note": "[tivozanib]", "values": [
      {"measurement": "cell death in liver metastases (viability, degeneration, necrosis)", "setting": "[2]; 0-1 mg/ml, FIGS. 12C-12D", "value": "induces cell death"},
      {"measurement": "tumor cell effect at physiologic doses", "setting": "[2]; physiologic doses", "value": "tumor cell degeneration"},
      {"measurement": "tumor cell effect at supraphysiologic concentrations", "setting": "[2]; supraphysiologic concentrations", "value": "frank necrosis"}
    ]},
    {"compound": "pembrolizumab", "values": [
      {"measurement": "immune cell engagement with tumor cells", "setting": "[3]", "value": "Immune cell engagement was observed"},
      {"measurement": "tumor cell lysis / apoptosis of CD44-positive cancer cells bound by CD45-positive cells", "setting": "[3]", "value": "captured tumor cell lysis"},
      {"measurement": "binding of immune cells (CD45-positive) to cancer cells", "setting": "[4]", "value": "stimulates binding of immune cells to cancer cells"}
    ]}
  ]
}
